Measurements published in US11739051B2 (ALEXION PHARMA INTERNATIONAL OPERATIONS UNLIMITED COMPANY, priority 2018, dated 2023).

Tests used:
[1] = 5 g lab-scale Process C crystallization; for D10 (μm) / D50 (μm) / D90 (μm): ethanol charge time and temperature vary per example; for >100 (%): particles greater than 100 μm; for <2 (%): particles less than 2 μm; for D90/D50: ratio of D90 to D50
Protocol: Particle size distribution (PSD) was analyzed by LALLS on a commercial laser particle size analyzer (Malvern Instruments Ltd. Mastersizer 3000™) instrument, equipped with a 300 mm reverse Fourier lens with a small volume automated liquid sample dispersion unit (Malvern, Hydro MV™). The sample dispersion medium was paraffin oil. Samples taken from each of the batches were analyzed sequentially. Each sample was introduced directly into the small volume sample dispersion unit to study the disaggregation under influence of stirring only. Thereafter sonication was applied at low power (20%) in 60 seconds. This was repeated until a stable reading was obtained.
(§1) Each mixture was then transferred to a 250 mL lab reactor via a series of 0.45 and 0.22 μm HPLC filters for polish filtration, and 2×1 mL water was used for rinsing (total amount water added: 19 mL, which gives an ethanol amount of 76 mL for an ethanol/water end-ratio of 80/20). After heating of the mixture to correct jacket temperature (35° C., 45° C., 50° C. or 55° C.), ethanol (76 mL) was charged for 1, 2.5 or 4 hours. A syringe pump connected to a 50-mL plastic syringe was used for the charging. Linear cooling profiles were then applied and all examples were cooled at a rate of 0.333° C./min down to 15° C. All mixtures were stirred for an additional 10 minutes at 15° C. before isolation of the solid on a P3 glass filter funnel. In example 8, the same conditions as described above were used, but the speed of the stirrer of the lab reactor was doubled. In example 10, the same conditions as described above were used, but a type different stirrer was used that increased the mass transfer in the lab reactor.

[2] = isolated solid after 5 g lab-scale Process C crystallization
Protocol: Purity was analyzed by reverse-phase high-performance liquid chromatography (HLPC) using Agilent® 1100 series HPLC system and a reversed-phase column (Aquasil C18, 4.6×250 mm, 5 μm) at 25°, with the absorbance detector set to 242 or 301 nm. […] The amount of BC-TTM and impurities in the sample solution was determined by the regression line and the area of the standard peaks in the sample chromatogram.
as §1

[3] = Crystallinity by X-ray powder diffraction (XRPD); assay type: physicochemical; conditions: AREAcryst/AREAtotal*100, listed as B-2
Protocol: Crystallinity was analyzed by X-ray powder diffraction (XRPD) using a Cu-anode (45 kV/40 mA), a Kα-1 monochromator and silicon-based position-sensitive 1D detector (Malvern Panalytical, X'Celerator™). The 2-theta range was 2-35° using a scan speed of 0.02°/s and a step size of 0.017°. Slow spinning sample holders were used. […] Each sample was smeared out using a Teflon bar, producing a flat powdered surface on zero background wafers of silicon (Si). The measurements were performed using a programmable incident divergence slit.
The crystallinity was evaluated using Panalytical HighScore Plus™ software (The HighScore suite; T. Degen, M. Sadki, E. Bron, U. König, G. Nénert; Powder Diffraction, Volume 29, Supplement S2, December 2014, pp S13-S18). This method is based on the following steps: 1) Calculation of the net area of the signals from the crystalline part of the sample. This area is defined as “AREAcryst.” 2) Calculation of the net total area, that is, area from the amorphous “humps” plus the net peak area from step 1. This area is defined as “AREAtotal.” In the calculation of above areas, an automatic correction of the background is made by using data collected for an empty sample holder. 3) The percent crystallinity of the sample is calculated as: (AREAcryst/AREAtotal)*100.
XRPD crystallinity results for each batch are reported Table 1.

[4] = Particle size distribution (PSD) by LALLS; assay type: physicochemical; conditions: for Dx (10)/μm: 10th percentile of particle size, paraffin oil dispersion; for Dx (50)/μm: 50th percentile of particle size; for Dx (90)/μm: 90th percentile of particle size; for >100 μm (%): percentage of particles greater than 100 μm; for <2 μm (%): percentage of particles less than 2 μm
Source text: As used herein, the term “Dx(10)/μm” refers to the 10th percentile of particle size (D10) measured in micrometers (μm). As used herein, the terms “Dx(50)/μm” or “median particle size” refer to the 50th percentile particle size (D50). As used herein, the term “Dx(90)/μm” refers to the 90th percentile of particle size (D90).
As used herein, the term “<2 μm (%)” refers to the percentage (%) of particles that are less than 2 μm. As used herein, the term “>100 μm (%)” refers to the percentage (%) of particles that are greater than 100 μm. As used herein, the percentage of particles refers to the percentage based on the population, or number, of particles.
The sample dispersion medium was paraffin oil. […] This was repeated until a stable reading was obtained.
The PSD measurements were done using the following settings: background measurement time, 20 seconds(s); sample measurement time, 20 s; dispersant refractive index, 1.45; particle refractive index, N/A (Fraunhofer), absorption, N/A (Fraunhofer); stirrer speed, 2500 rpm; analysis model: general purpose.

[5] = Specific surface area (SSA) by BET; assay type: physicochemical; conditions: N2 adsorption
Protocol: As used herein, the ten “SSA (m^2/g)” refers to specific surface area (SSA) measured in square meters (m^2) per gram (g). SSA was measured by BET according to the method described in Example 4.
Specific Surface Area (SSA) was analyzed by BET on a surface area analyzer (Gemini 2375™ from Micromeritics Instrument Corp.). […] Each sample was filled into a glass tube and “degassed” at 30° C. for 1 h under continuous N2 (g) flow in order to remove all loosely bound molecules on the external surface and from potential channels in the material. Simultaneously, the saturation pressure for the liquid nitrogen used was determined. After weighing the degassed samples, the degassed samples were inserted into the measuring position at −196° C. (boiling point for liquid nitrogen), evacuated and then exposed to a range of partial pressures basically covering the whole range from almost zero to close to 1 under adsorption mode. The lower pressures were used for SSA determination. Higher pressures were used for potential micro pore determination. In order to ascribe the right amount of nitrogen to the substances, the free volume in the tubes was measured with helium gas prior to nitrogen adsorption. The appropriate thickness values for the adsorbed layer (above the point where no absorption took place in micro pores anymore) was determined from a t-plot and subsequently used to correct the calculation by separating the adsorbed nitrogen molecules into either absorbed into potential pore like structures (the “micro pore volume”) or adsorbed onto actual external surface.

[6] = Stability of crystalline particles after forced degradation at 40° C. and 75% relative humidity (HPLC impurities); assay type: physicochemical; conditions: listed as B-2
Protocol: Stability analysis was performed on crystalline particles after forced degradation at 40° C. and 75% relative humidity over 3 days.

Substance	D10 (μm) [1]	D50 (μm) [1]	D90 (μm) [1]	>100 (%) [1]	<2 (%) [1]	D90/D50 [1]	TM2 (% w/w) [2]	TM3 (% w/w) [2]	Total impurities (% w/w) [2]	further results
bis-choline tetrathiomolybdate [compound 2]	25 μm	46 μm	79 μm	1.9%	1.4%	1.7	0.13 % w/w	0.45 % w/w	0.57 % w/w	
bis-choline tetrathiomolybdate [compound 5]	38 μm	80 μm	136 μm	31%	0.0%	1.7	<0.05 % w/w	0.18 % w/w	0.18 % w/w	
bis-choline tetrathiomolybdate [Batch B-2]										Estimated Crystallinity (%) [3]: 93%; Dx (10)/μm ([4]; listed as B-2): 5.4 μm; Dx (50)/μm ([4]; listed as B-2): 20.5 μm; Dx (90)/μm ([4]; listed as B-2): 59.7 μm; >100 μm (%) ([4]; listed as B-2): 0.1%; <2 μm (%) ([4]; listed as B-2): 4.3%; SSA (m^2/g) ([5]; listed as B-2): 0.65 m^2/g; Mo2S6O2 dimer (area %) ([6]; Day 1, 40° C. / 75% RH): 0.07 area %; Mo2S6O2 dimer (area %) ([6]; Day 2, 40° C. / 75% RH): 0.13 area %; Mo2S6O2 dimer (area %) ([6]; Day 3, 40° C. / 75% RH): 0.19 area %; TM2 (area %) ([6]; Day 3, 40° C. / 75% RH): 0.13 area %; TM3 (area %) ([6]; Day 3, 40° C. / 75% RH): 0.54 area %; Total impurities (area %) ([6]; Day 3, 40° C. / 75% RH): 0.97 area %; TM2 (area %) ([6]; Initial): 0.01 area %; TM3 (area %) ([6]; Initial): 0.52 area %; Total impurities (area %) ([6]; Initial): 0.56 area %
bis-choline tetrathiomolybdate [Batch C-3]										Dx (10)/μm ([4]; listed as C-3): 25.7 μm; Dx (50)/μm ([4]; listed as C-3): 52.9 μm; Dx (90)/μm ([4]; listed as C-3): 97.7 μm; >100 μm (%) ([4]; listed as C-3): 9.2%; <2 μm (%) ([4]; listed as C-3): 1.0%; SSA (m^2/g) ([5]; listed as C-3): 0.12 m^2/g
bis-choline tetrathiomolybdate [compound 7]	41 μm	85 μm	143 μm	36%	0.0%	1.7	<0.05 % w/w	0.18 % w/w	0.18 % w/w	
bis-choline tetrathiomolybdate [compound 9]	33 μm	61 μm	101 μm	11%	1.0%	1.7	0.12 % w/w	0.25 % w/w	0.37 % w/w	
bis-choline tetrathiomolybdate [Batch A-1]										Dx (10)/μm ([4]; listed as A-1): 10.3 μm; Dx (50)/μm ([4]; listed as A-1): 59.4 μm; Dx (90)/μm ([4]; listed as A-1): 503 μm; >100 μm (%) ([4]; listed as A-1): 42.1%; <2 μm (%) ([4]; listed as A-1): 2%; SSA (m^2/g) ([5]; listed as A-1): 0.52 m^2/g
bis-choline tetrathiomolybdate [compound 10]	50 μm	95 μm	161 μm	45%	0.0%	1.7	<0.05% w/w	0.16 % w/w	0.16 % w/w	
bis-choline tetrathiomolybdate [compound 1]	21 μm	45 μm	77 μm	1.4%	1.3%	1.7	<0.05 % w/w	0.18 % w/w	0.18 % w/w	
bis-choline tetrathiomolybdate [compound 8]	57 μm	102 μm	164 μm	52%	0.0%	1.6	<0.05 % w/w	0.18 % w/w	0.18 % w/w	
bis-choline tetrathiomolybdate [compound 3]	37 μm	79 μm	135 μm	30%	0.4%	1.7	<0.05 % w/w	0.14 % w/w	0.14 % w/w	
bis-choline tetrathiomolybdate [compound 4]	33 μm	56 μm	92 μm	5.8%	0.8%	1.6	0.19 % w/w	0.46 % w/w	0.70 % w/w	
bis-choline tetrathiomolybdate [compound 6]	42 μm	87 μm	148 μm	38%	0.0%	1.7	<0.05 % w/w	0.19 % w/w	0.19 % w/w	
